The record followed here is patent publication US11738029B2, “Rucaparib particles and uses thereof” (CRITITECH, INC., priority 2021, dated 2023).

Type in all cases: physicochemical
Data set [1] is described as follows: Solubility testing, shake-flask method. To be noted: 24 hours at 20-25° C. The protocol: The solubility was determined by using a shake-flask method. The drug was added in excess to each solution prepared in duplicate. The vials were placed on a mechanical shaker for 24 hours at 20-25° C. After shaking, solution was removed and filtered through a 0.45 μm PTFE syringe filter and analyzed by UV/Visible spectrophotometry.

A short description of data set [2]: Specific surface area (SSA) by BET sorptometry. The procedure: As used herein, the “specific surface area” is the total surface area of the rucaparib particle per unit of rucaparib mass as measured by the Brunauer-Emmett-Teller (“BET”) isotherm (i.e.: the BET SSA). As will be understood by those of skill in the art, the SSA is determined on a per gram basis and takes into account both agglomerated and non-agglomerated rucaparib particles in the composition. The BET specific surface area test procedure is a compendial method included in both the United States Pharmaceopeia and the European Pharmaceopeia. The rucaparib particles have a specific surface area (SSA) of at least 12 m^2/g. In various further embodiments, the rucaparib particles have a SSA of at least 13 m^2/g, 14 m^2/g, 15 m^2/g, 16 m^2/g, 17 m^2/g, 18 m^2/g, 19 m^2/g, 20 m^2/g, 21 m^2/g, 22 m^2/g, 23 m^2/g, 24 m^2/g, 25 m^2/g, 26 m^2/g, 27 m^2/g, 28 m^2/g, 29 m^2/g, or 30 m^2/g.
(§1) • Particle Size Distribution (PSD) by Laser Diffraction • Imaging by Scanning Electron Microscopy (SEM) • Specific Surface Area (SSA) determination by BET Sorptometry • Crystalline/amorphous phase determination by Powder X-ray Diffraction (PXRD) • Bulk density analysis by modified USP <616>Bulk Density of Powders Method I
Specific Surface Area Surface area analyses were conducted on a Quantachrome NOVAtouch™ LX2 BET Sorptometer. Surface area results can be found in Table 1.

The nature of data set [3]: Bulk density analysis by modified USP <616> Bulk Density of Powders Method I (bulk and tapped).
Text: As used herein, the bulk density (not tapped) of a particle is the ratio of the mass to the volume (including the interparticulate void volume) of an untapped powder sample.
As used herein, the tapped density of a particle is obtained by mechanically tapping a graduated cylinder containing the sample until little further volume change is observed.
as §1

Data set [4] can be described thus: Particle size distribution (PSD) by laser diffraction, Malvern Mastersizer 3000. The conditions noted are these: dispersed in ethyl acetate. The protocol: as §1
Particle size analyses were conducted on a Malvern Mastersizer™ 3000 using the Hydro MV™ dispersion unit. A non-validated general PSD method/dispersant method was used to analyze the rucaparib samples. The sample preparation procedure performed was as follows: • Weigh 10 to 20 mg of rucaparib into a 30-mL vial, add 20 mL of ethyl acetate. Disperse the sample by vortexing then sonicating the suspension in an ultrasonic bath for 1 minute. Then transfer the sample suspension to the Malvern Hydro MV™ dispersion unit to obtain obscuration between 5 and 15%.
Particle size distributions can be viewed in Table 1.

As for `CNCc1ccc(-c2[nH]c3cc(F)cc4c3c2CCNC4=O)cc1` [Rucaparib, (8-fluoro-2-{4-[(methylamino)methyl]phenyl}-1,3,4,5-tetrahydro-6H-azepino[5,4,3-cd]indol-6-one ((1S,4R)-7,7-dimethyl-2-oxobicyclo[2.2.1]hept-1-yl)], the “Concentration of Rucaparib Found” value in data set [1] (25% ethanol) is 115 µg/mL; in data set [1] (25% methanol), 68.8 µg/mL; in data set [1] (40% ethanol), 394 µg/mL; in data set [1] (40% methanol), 739 µg/mL. Besides, the “Surface Area” value in data set [2] (BET) is 6.59 m^2/gm. Further, the “specific surface area measurement” value in data set [2] (material used in dissolution testing) is recorded as 6.59 m2/g. Moreover, the “Bulk Density” value in data set [3] (not tapped) turned out to be 0.332 gm/cm^3. Besides, the “Tapped Density” value in data set [3] (tapped) came out at 0.427 gm/cm^3. In addition, the “PSD - Masterisizer Dv-10” value in data set [4] stood at 2.96 μ. In data set [4], the “PSD - Masterisizer Dv-50” value was 13.6 μ. For the same compound, the “PSD - Masterisizer Dv-90” value in data set [4] is listed as 26.8 μ.
